Earlier results in patent US20100167989A1, “ISOPROPOXYPHENYLMETHYL INHIBITORS OF SGLT2” (AUSPEX PHARMACEUTICALS, INC., priority 2008, published 2010).

Columns and labels:
[1] = test system: mice; conditions: orally administered
[2] = test system: rats; conditions: orally administered

CCOC(=O)OC[C@H]1O[C@@H](Oc2nn(C(C)C)c(C)c2Cc2ccc(OC(C)C)cc2)[C@H](O)[C@@H](O)[C@@H]1O [remogliflozin etabonate, 4-[(4-isopropoxyphenyl)-methyl]-1-isopropyl-5-methyl-1H-pyrazol-3-yl-D-glucopyranoside]
urinary glucose excretion [1]: increased urinary glucose excretion in a dose-dependent manner
urinary glucose excretion [2]: increased urinary glucose excretion in a dose-dependent manner
